The text below walks through data of patent US3983105A, “Penicillins” (Bayer Aktiengesellschaft, priority 1971, dated 1976).

Where “and” joins values, the source holds several entries; their conditions need not be identical. Identical values can stand only once.

In one series the test system is Pseudomonas aeruginosa. In words: MIC, test tube serial dilution, Pseudomonas aeruginosa. It counts as cell-based. Particulars: 24 hours, 37°C.
The next series has as its system Klebsiella-Aerobacter. In words: MIC, test tube serial dilution, Klebsiella-Aerobacter. It counts as cell-based. To be noted: 24 hours, 37°C.
A further series deals with Escherichia coli. In words: MIC, test tube serial dilution, Escherichia coli. The format is cell-based. Particulars: 24 hours, 37°C.
In another series the test system is Proteus morganii. In words: MIC, test tube serial dilution, Proteus morganii. It counts as cell-based. Particulars: strain 932; 24 hours, 37°C.
Another series deals with Proteus vulgaris. In words: MIC, test tube serial dilution, Proteus vulgaris. It counts as cell-based. Particulars: unit assumed.
Another series relates to Streptococcus faecalis. In words: MIC, test tube serial dilution, Streptococcus faecalis. It counts as cell-based. To be noted: ATCC 9790; 24 hours, 37°C.
The next series relates to Staphylococcus aureus. In words: MIC, test tube serial dilution, Staphylococcus aureus. The format is cell-based. To be noted: 24 hours, 37°C.
A further series in a line: in vivo. To be noted: mouse, iv.

As to `CNC(=O)N1CCN(C(=O)N[C@@H](C(=O)N[C@@H]2C(=O)N3[C@@H]2SC(C)(C)[C@@H]3C(=O)O)c2ccccc2)C1=O` [Example 2, Sodium D(-)-α-[(3-methylaminocarbonyl-imidazolidin-2-on-1-yl)-carbonylamino]-benzylpenicillin], the MIC in the series with Pseudomonas aeruginosa (strain Bonn) was 50 U/ml; against Pseudomonas aeruginosa (strain Walter), 25 U/ml; against Klebsiella-Aerobacter (strain 63), 12.5 U/ml and 12 U/ml; in the series with Klebsiella-Aerobacter (strain K 10), 50 U/ml; in the series with Escherichia coli (strain 183/58) it was 1.6 U/ml; against Escherichia coli (strain A 261), 100 U/ml. In addition, the MIC was 1.6 U/ml against Escherichia coli (strain C 165); 1.6 U/ml in the series on Proteus morganii; 6 µg/mL in the series on Proteus vulgaris; 50 U/ml in the series with Streptococcus faecalis; < 0.8 U/ml in the series on Staphylococcus aureus (strain 133); 200 U/ml against Staphylococcus aureus (strain 1756 (BRL 1 756)). This compound also displayed an LD50 in the series “in vivo” of 3000 mg/kg.
